Test results published in publication PMC12434091, “Real-time monitoring with iTLR4 assay identifies ligand-dependent TLR4-TLR4 conformational dynamics” (Frontiers in Immunology, 2025).

Target: T1, Toll-like receptor 4 (TLR4) (Homo sapiens, UniProt O00206)
T1 construct: HA-TLR4-NLuc and HA-TLR4-Venus (C-terminal tags); with MD2 and CD14 (co-expressed; not required)
Test: BRET TLR4-TLR4 proximity assay (iTLR4) in transfected HEK293 cells
Type: cell-based

T1 sequence (O00206 24-839): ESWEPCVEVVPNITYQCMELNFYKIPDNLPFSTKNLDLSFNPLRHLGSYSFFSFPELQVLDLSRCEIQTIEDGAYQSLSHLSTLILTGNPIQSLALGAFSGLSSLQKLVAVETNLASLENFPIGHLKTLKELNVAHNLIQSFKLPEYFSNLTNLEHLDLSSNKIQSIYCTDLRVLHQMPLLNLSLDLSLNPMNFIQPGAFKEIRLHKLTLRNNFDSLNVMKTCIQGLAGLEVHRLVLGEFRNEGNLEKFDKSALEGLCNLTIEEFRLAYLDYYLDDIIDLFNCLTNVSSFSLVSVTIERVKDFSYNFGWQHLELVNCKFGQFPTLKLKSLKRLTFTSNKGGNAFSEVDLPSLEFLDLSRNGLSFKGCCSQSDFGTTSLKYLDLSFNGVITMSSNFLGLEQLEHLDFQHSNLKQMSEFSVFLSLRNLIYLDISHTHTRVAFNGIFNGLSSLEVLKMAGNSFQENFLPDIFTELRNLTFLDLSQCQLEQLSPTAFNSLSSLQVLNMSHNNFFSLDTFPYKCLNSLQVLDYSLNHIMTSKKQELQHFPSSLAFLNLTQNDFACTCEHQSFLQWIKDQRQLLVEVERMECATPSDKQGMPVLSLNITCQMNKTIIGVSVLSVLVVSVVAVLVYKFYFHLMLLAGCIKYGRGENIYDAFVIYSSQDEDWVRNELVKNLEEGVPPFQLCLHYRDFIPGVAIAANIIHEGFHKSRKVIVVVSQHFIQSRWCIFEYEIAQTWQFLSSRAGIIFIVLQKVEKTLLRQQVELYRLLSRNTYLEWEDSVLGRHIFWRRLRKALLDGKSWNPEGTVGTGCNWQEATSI
T1 sequence (Q9Y6Y9 19-160 partner): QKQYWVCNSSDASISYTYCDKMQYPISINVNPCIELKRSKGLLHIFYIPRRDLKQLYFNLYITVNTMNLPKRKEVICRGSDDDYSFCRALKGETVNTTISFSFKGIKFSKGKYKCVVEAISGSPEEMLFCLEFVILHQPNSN
T1 sequence (P08571 20-345 partner): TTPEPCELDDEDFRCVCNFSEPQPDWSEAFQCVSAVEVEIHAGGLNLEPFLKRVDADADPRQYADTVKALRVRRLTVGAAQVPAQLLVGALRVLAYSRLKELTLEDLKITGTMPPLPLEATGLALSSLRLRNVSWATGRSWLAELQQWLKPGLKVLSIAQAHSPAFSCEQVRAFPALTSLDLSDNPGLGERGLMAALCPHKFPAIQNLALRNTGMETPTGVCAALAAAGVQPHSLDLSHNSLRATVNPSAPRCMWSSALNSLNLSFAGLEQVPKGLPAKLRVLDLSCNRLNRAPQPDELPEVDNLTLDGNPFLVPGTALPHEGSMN

Compound | EC50
C=CCN1CC[C@@]23c4c5ccc(O)c4O[C@@H]2C(=O)CC[C@]3(O)[C@@H]1C5 [(+)-naloxone] | 4.2 µM
C=CCN1CC[C@]23c4c5ccc(O)c4O[C@H]2C(=O)CC[C@@]3(O)[C@H]1C5 [(-)-naloxone] | 3 µM
